Reference: patent publication US20260256740A1, “PHARMACEUTICAL COMPOSITION COMPRISING CYCLOHEX-2-ENYLIDENE / 3,3-DIMETHYLINDOLINE COMPOUNDS; METHODS OF TREATING HUMAN DISEASES; AND METHODS OF INDUCING A CALCIUM SENSITIZING EFFECT IN A SUBJECT” (Curadel Surgical Innovations, Inc., priority 2022, published 2026)

Tested on: plasma membrane of living cells
Assay: NIR cellular microscopy of living cells
Assay type: cell-based
From the text: Without being limited by theory, PanLN and PanLN-forte are believed unlikely to directly bind myofilaments.

| Compound | crossing of the plasma membrane of living cells |
| --- | --- |
| CC1(C)C(/C=C/C2=C(Oc3ccc(CCC(=O)O)cc3)C(=C/C=C3/N(CCC[N+](C)(C)C)c4ccccc4C3(C)C)/CCC2)=[N+](CCC[N+](C)(C)C)c2ccccc21 [PanLN, 2-((E)-2-((E)-2-(4-(2-carboxyethyl)phenoxy)-3-((E)-2-(3,3-dimethyl-1-(3-(trimethylammonio)propyl)indolin-2-ylidene)ethylidene)cyclohex-1-enyl)vinyl)-3,3-dimethyl-1-(3-(trimethylammonio)propyl)-3H-indolium] | does not appear to cross the plasma membrane |
| CC1(C)C(/C=C/C2=C(c3ccc(CCC(=O)O)cc3)C(=C/C=C3/N(CCC[N+](C)(C)C)c4ccccc4C3(C)C)/CCC2)=[N+](CCC[N+](C)(C)C)c2ccccc21 [PanLN-fort, 2-((E)-2-((E)-2-(4-(2-carboxyethyl)phenyl)-3-((E)-2-(3,3-dimethyl-1-(3-(trimethylammonio)propyl)indolin-2-ylidene)ethylidene)cyclohex-1-enyl)vinyl)-3,3-dimethyl-1-(3-(trimethylammonio)propyl)-3H-indolium] | does not appear to cross the plasma membrane |
